Test results: the supplement of paper PMC13380429

Legend:
[1] = system: A549-ACE2 infected with SARS-CoV-2; experiment: SARS-CoV-2 infection rate relative to DMSO; higher = more infection; details: 24 h
[2] = system: A549-ACE2 infected with SARS-CoV-2; experiment: cell count relative to DMSO; higher = less toxic; details: 24 h
[3] = system: A549-ACE2 infected with SARS-CoV-2; experiment: morphology score (similarity to uninfected cells); higher = more like uninfected cells; details: 24 h
Calu-3 [4] = experiment: relative viability EC50 (midpoint between 100% and the lowest measured viability); higher = less toxic; details: 72 h
HepG2 [5] = experiment: as above; details: 72 h
U2OS [6] = experiment: as above; details: 72 h
Caco-2 [7] = experiment: as above; details: 72 h
Vero E6 [8] = experiment: as above; details: 72 h
Calu-3 [9] = experiment: cell viability relative to DMSO; higher = less toxic; details: 72 h
HepG2 [10] = experiment: as above; details: 72 h
U2OS [11] = experiment: as above; details: 72 h
Caco-2 [12] = experiment: as above; details: 72 h
Vero E6 [13] = experiment: as above; details: 72 h
Calu-3 [14] = experiment: drug sensitivity score (DSS) for viability; higher = more toxic; extreme values may be limits of the assay; details: 72 h
HepG2 [15] = experiment: as above; details: 72 h
U2OS [16] = experiment: as above; details: 72 h
Caco-2 [17] = experiment: as above; details: 72 h
Vero E6 [18] = experiment: as above; details: 72 h
A549-ACE2 = experiment: drug-induced phospholipidosis relative to tamoxifen; higher = more phospholipidosis

CC(C)COc1ccc(CNC(=O)N(Cc2ccc(F)cc2)C2CCN(C)CC2)cc1 [pimavanserin]
Details | SARS-CoV-2 infection rate, [1] [%] | cell count, [2] [%] | cell viability, Caco-2 [12] [%] | cell viability, Calu-3 [9] [%] | cell viability, HepG2 [10] [%] | cell viability, U2OS [11] [%] | cell viability, Vero E6 [13] [%] | morphology score, [3]
1 nM | – | – | 105 | 100 | 102 | 99.4 | 101 | –
10 nM | – | – | 95.7 | 97 | 104 | 99.2 | 101 | –
100 nM | – | – | 105 | 95.1 | 104 | 92.2 | 108 | –
0.3 µM | 100 | 101 | – | – | – | – | – | -0.07
1000 nM | – | – | 110 | 95.2 | 103 | 99.2 | 99.4 | –
10000 nM | – | – | 85.7 | 86.2 | 86.2 | 92 | 98.4 | –

Details | drug sensitivity score | relative viability EC50 [µM]
Caco-2 [7] | – | > 10
Caco-2 [17] | 0.1 | –
Calu-3 [4] | – | > 10
Calu-3 [14] | 0.1 | –
HepG2 [5] | – | > 10
HepG2 [15] | 0.1 | –
U2OS [6] | – | > 10
U2OS [16] | 0 | –
Vero E6 [8] | – | > 10
Vero E6 [18] | 0 | –

A549-ACE2, 0.3 µM
Details | drug-induced phospholipidosis [%]
24 h | 4.68
48 h | 2.24
72 h | 1.32

COc1ccc(C2CNC(=O)C2)cc1OC1CCCC1 (centres undefined) [rolipram]
Details | drug sensitivity score | relative viability EC50 [µM]
Caco-2 [7] | – | > 10
Caco-2 [17] | 0 | –
Calu-3 [4] | – | > 10
Calu-3 [14] | 0 | –
HepG2 [5] | – | > 10
HepG2 [15] | 0 | –
U2OS [6] | – | > 10
U2OS [16] | 0 | –
Vero E6 [8] | – | > 10
Vero E6 [18] | 0.0667 | –

cell viability [%]
Details | Caco-2 [12] | Calu-3 [9] | HepG2 [10] | U2OS [11] | Vero E6 [13]
1 nM | 95.2 | 98.2 | 102 | 96.2 | 93.6
10 nM | 96.4 | 97.6 | 102 | 97 | 95.1
100 nM | 97.7 | 103 | 101 | 96.1 | 94.4
1000 nM | 98.8 | 98.4 | 106 | 99.1 | 96.8
10000 nM | 110 | 103 | 101 | 101 | 102

COc1cccc(CCc2ccccc2OCC(CN(C)C)OC(=O)CCC(=O)O)c1 (centres undefined) [sarpogrelate]
Details | drug sensitivity score | relative viability EC50 [µM]
Caco-2 [7] | – | > 10
Caco-2 [17] | 0 | –
Calu-3 [4] | – | > 10
Calu-3 [14] | 0 | –
HepG2 [5] | – | > 10
HepG2 [15] | 0 | –
U2OS [6] | – | > 10
U2OS [16] | 0 | –
Vero E6 [8] | – | > 10
Vero E6 [18] | 0 | –

cell viability [%]
Details | Caco-2 [12] | Calu-3 [9] | HepG2 [10] | U2OS [11] | Vero E6 [13]
1 nM | 92.1 | 96.5 | 109 | 100 | 105
10 nM | 101 | 98.3 | 104 | 105 | 98.6
100 nM | 98.4 | 96.4 | 105 | 99.8 | 104
1000 nM | 105 | 102 | 92.5 | 103 | 100
10000 nM | 98.2 | 96.9 | 102 | 95.3 | 95.8

COc1cc(C[C@@H](CO[C@@H]2O[C@H](CO)[C@@H](O)[C@H](O)[C@H]2O)[C@H](CO[C@@H]2O[C@H](CO)[C@@H](O)[C@H](O)[C@H]2O)Cc2ccc(O)c(OC)c2)ccc1O [secoisolariciresinol-diglucoside]
Details | drug sensitivity score | relative viability EC50 [µM]
Caco-2 [7] | – | > 10
Caco-2 [17] | 0 | –
Calu-3 [4] | – | > 10
Calu-3 [14] | 0 | –
HepG2 [5] | – | > 10
HepG2 [15] | 0 | –
U2OS [6] | – | > 10
U2OS [16] | 0 | –
Vero E6 [8] | – | > 10
Vero E6 [18] | 0 | –

cell viability [%]
Details | Caco-2 [12] | Calu-3 [9] | HepG2 [10] | U2OS [11] | Vero E6 [13]
1 nM | 100 | 103 | 98.7 | 94 | 95.6
10 nM | 93.6 | 92.9 | 104 | 96.7 | 101
100 nM | 96.7 | 87.4 | 102 | 101 | 93.6
1000 nM | 99.4 | 103 | 111 | 101 | 97.8
10000 nM | 108 | 102 | 110 | 97.9 | 110

CC(SC(=O)c1cccs1)C(=O)NCC(=O)O (centres undefined) [stepronin]
Details | drug sensitivity score | relative viability EC50 [µM]
Caco-2 [7] | – | > 10
Caco-2 [17] | 0 | –
Calu-3 [4] | – | > 10
Calu-3 [14] | 0 | –
HepG2 [5] | – | > 10
HepG2 [15] | 0.3 | –
U2OS [6] | – | > 10
U2OS [16] | 0 | –
Vero E6 [8] | – | > 10
Vero E6 [18] | 0 | –

cell viability [%]
Details | Caco-2 [12] | Calu-3 [9] | HepG2 [10] | U2OS [11] | Vero E6 [13]
1 nM | 112 | 91.9 | 106 | 96.6 | 109
10 nM | 84.4 | 106 | 102 | 104 | 91.9
100 nM | 96.1 | 97.6 | 105 | 93.5 | 108
1000 nM | 103 | 110 | 88.6 | 99 | 101
10000 nM | 103 | 97.5 | 97 | 97.1 | 98.8

C[S+]([O-])CCCCN=C=S (centres undefined) [sulforaphane]
Details | SARS-CoV-2 infection rate, [1] [%] | cell count, [2] [%] | cell viability, Caco-2 [12] [%] | cell viability, Calu-3 [9] [%] | cell viability, HepG2 [10] [%] | cell viability, U2OS [11] [%] | cell viability, Vero E6 [13] [%] | morphology score, [3]
1 nM | – | – | 92.1 | 91 | 90.5 | 100 | 103 | –
10 nM | – | – | 107 | 91 | 89.7 | 104 | 108 | –
100 nM | – | – | 104 | 96 | 90.6 | 97.7 | 104 | –
0.3 µM | 95 | 104 | – | – | – | – | – | 0.21
1000 nM | – | – | 91.3 | 108 | 79.8 | 97.9 | 94.6 | –
3 µM | 95 | 99 | – | – | – | – | – | -0.05
10 µM | 79 | 85 | – | – | – | – | – | 0.33
10000 nM | – | – | 70.9 | 97.9 | 72.3 | 77.4 | 90.2 | –
30 µM | 18 | 109 | – | – | – | – | – | 0.82

Details | drug sensitivity score | relative viability EC50 [µM]
Caco-2 [17] | 2.5 | –
Calu-3 [4] | – | > 10
Calu-3 [14] | 0 | –
HepG2 [15] | 4.1 | –
U2OS [6] | – | > 10
U2OS [16] | 1.1 | –
Vero E6 [8] | – | > 10
Vero E6 [18] | 0 | –

drug-induced phospholipidosis [%], A549-ACE2
Details | 0.3 µM | 0.833333 µM | 3.33333 µM | 6.66667 µM | 10 µM | 30 µM
24 h | 1.81 | -7.24 | -2.29 | 1.54 | 3.49 | 22.7
48 h | 1.78 | -7.01 | -5.48 | -4.04 | -0.65 | 15.9
72 h | -0.306 | -6.99 | -5.48 | -5.9 | -2.75 | 7.99
